According to US11267802B2 (BEBETTER MED INC., priority 2015, dated 2022):
pIC50: −log10 of the molar value.

How the values were obtained:
EGFR T790M/L858R = target: T1, EGFR T790M/L858R (Homo sapiens, UniProt P00533, L858R/T790M); experiment: Mutant EGFR T790M/L858R activity inhibition assay (Caliper mobility shift); format: biochemical; conditions: read-out: enzyme activity inhibition (IC50) EGFR T790M/L858R
T1 construct: purchased Invitrogen PR8911A
Protocol: The assay procedure is as follows. […] 5 μl of the compound dissolved in 10% DMSO at a concentration of 5-fold of the final reaction concentration was added to a 384 well plate. 5 μl of 10% DMSO was used in a no-compound control well, while 5 μl of a kinase buffer was used in a no-enzyme activity control well. […] The conversion rate was read on Caliper EZ Reader II (Caliper Life Sciences). The conversion rate was then converted to inhibitory rate.
As used herein, “max” refers to the conversion rate of the DMSO no-compound control well, and “min” refers to the conversion rate of the no-enzyme activity control well. A curve was obtained by plotting the inhibitory rate as a function of the compound concentration. The XLFit excel add-in version 4.3.1 software was used to fit the curve and calculate the IC50. Inhibitory rate %=(max−conversion rate)/(max−min)×100.

H1975 = experiment: Inhibition assay on tumor cell proliferation (CellTiter-Glo), H1975; format: cell-based, Human; conditions: Homo sapiens, NCI-H1975; H1975 (L858R and T790M EGFR double mutation), 72 hours, 10% bovine serum
H358 = experiment: Inhibition assay on tumor cell proliferation (CellTiter-Glo), H358; format: cell-based, Human; conditions: Homo sapiens, NCI-H358; H358 (wild-type EGFR), 72 hours, 10% bovine serum
Protocol: By using a CellTiter-Glo luminescence cell viability test kit (Promega, # G7572), the content of adenosine triphosphate (ATP) was determined to assess the cell viability.
Human colon cancer cell line LOVO and human non-small-cell lung cancer H358 express wild-type EGFR. Human non-small-cell lung cancer cell line HCC827 carries deletion mutation in exon 19 (ex19del). Those cell lines are purchased from Shanghai Fudan IBS Cell Resource Center and American Tissue Culture Collection (ATCC).
The assay procedure is as follows. The cells in a cell culture plate were digested with a pancreatic enzyme, re-suspended in a DPBS culture medium, and had the cell density counted by Scepter automated cytometer (Millipore # PHCC00000). The cells were diluted to a solution of 44,000 cells per ml. The cell solution with adjusted density was added to the cell assay plate at 90 microliters per well. The plate was placed in an incubator with 5% CO2 at 37° C. for 24 hours of incubation, and then added with different concentrations of subject compounds. The cells were incubated for 72 hours with the compounds in presence of 10% bovine serum. The content of ATP was determined by a CellTiter-Glo® Luminescent Cell Viability Assay kit (see the manufacturer's instruction for details) to evaluate cell-growth inhibition.
Briefly, 30 μl of CellTiter-Glo® reagent was added to each well, and then shaken for 10 minutes to induce cell lysis. The fluorescent signal was detected and recorded by Fluoroskan Ascent FL (Thermo). The max signal value was obtained from the cells treated by dimethyl sulfoxide for 72 hours. The min signal value was obtained from the medium alone (the number of the cells was 0). Inhibitory rate %=(max signal value−compound signal value)/(max signal value−min signal value)×100. The data was processed by GraphPad Prism V5.0 software (GraphPad Software, San Diego, Calif.). Sigmoidal dose-response curve fitting was performed to calculate the IC50 value.

T1 sequence (P00533 25-1210 T790M/L858R): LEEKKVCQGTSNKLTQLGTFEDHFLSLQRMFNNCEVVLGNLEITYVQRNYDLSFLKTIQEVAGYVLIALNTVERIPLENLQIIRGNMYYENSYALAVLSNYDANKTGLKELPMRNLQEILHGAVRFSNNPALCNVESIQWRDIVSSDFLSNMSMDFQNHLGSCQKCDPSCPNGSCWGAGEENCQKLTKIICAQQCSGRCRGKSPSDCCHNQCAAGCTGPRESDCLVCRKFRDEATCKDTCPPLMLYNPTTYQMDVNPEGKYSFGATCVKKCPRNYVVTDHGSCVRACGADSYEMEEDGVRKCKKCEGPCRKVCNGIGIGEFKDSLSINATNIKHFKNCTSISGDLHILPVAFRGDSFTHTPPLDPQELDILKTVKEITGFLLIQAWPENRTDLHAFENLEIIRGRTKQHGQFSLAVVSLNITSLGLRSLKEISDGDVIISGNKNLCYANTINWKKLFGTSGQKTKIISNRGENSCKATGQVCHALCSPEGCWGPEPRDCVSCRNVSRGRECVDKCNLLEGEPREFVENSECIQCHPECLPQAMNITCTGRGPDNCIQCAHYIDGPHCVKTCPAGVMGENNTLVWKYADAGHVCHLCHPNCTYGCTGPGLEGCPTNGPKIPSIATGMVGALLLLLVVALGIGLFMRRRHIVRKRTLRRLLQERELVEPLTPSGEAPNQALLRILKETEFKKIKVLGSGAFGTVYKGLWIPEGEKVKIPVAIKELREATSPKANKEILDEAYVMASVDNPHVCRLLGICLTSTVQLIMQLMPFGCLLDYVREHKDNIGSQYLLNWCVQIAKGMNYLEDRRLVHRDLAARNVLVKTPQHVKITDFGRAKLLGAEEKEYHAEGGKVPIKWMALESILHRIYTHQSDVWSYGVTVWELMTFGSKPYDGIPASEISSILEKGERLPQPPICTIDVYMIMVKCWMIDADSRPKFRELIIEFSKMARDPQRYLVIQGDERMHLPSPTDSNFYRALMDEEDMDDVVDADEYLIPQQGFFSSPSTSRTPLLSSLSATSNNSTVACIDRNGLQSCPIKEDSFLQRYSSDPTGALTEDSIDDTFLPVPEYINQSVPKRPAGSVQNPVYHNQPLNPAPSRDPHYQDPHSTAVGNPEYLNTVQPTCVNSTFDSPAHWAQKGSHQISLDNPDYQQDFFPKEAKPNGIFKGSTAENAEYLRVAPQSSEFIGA

pIC50 (EGFR T790M/L858R) | pIC50 (H1975) | pIC50 (H358) | melting point [°C] | SMILES
> 9.00 | > 8.00 | 6.00 to 7.00 | 177 to 179 | C=CC(=O)Nc1cc(Nc2nccc(-n3c(=O)n(C4CC4)c4cc(C#N)ccc43)n2)c(OC)cc1N(C)CCN(C)C [Compound 101, N-(5-((4-(5-cyano-3-cyclopropyl-2-oxo-2,3-dihydro-1H-benzo[d]imidazol-1-yl)pyrimidin-2-yl)amino)-2-((2-(dimethylamino)ethyl)(methyl)amino)-4-methoxyphenyl)acrylamide]
> 9.00 | > 8.00 | < 6.00 | 150 to 153 | C=CC(=O)Nc1cc(Nc2nccc(-n3ccc4cc(Cl)ccc43)n2)c(OC)cc1N(C)CCN(C)C [Compound 31, N-(5-((4-(5-chloro-1H-indol-1-yl)pyrimidin-2-yl)amino)-2-((2-(dimethylamino)ethyl)(methyl)amino)-4-methoxyphenyl)acrylamide]
8.00 to 9.00 | > 8.00 | < 6.00 | 92 to 95 | C=CC(=O)Nc1cc(Nc2ncc(OC)c(-n3c(=O)n(C(C)C)c4ccccc43)n2)c(OC)cc1N(C)CCN(C)C [Compound 133, N-(2-((2-(dimethylamino)ethyl) (methyl)amino)-5-((4-(3-isopropyl-2-oxo-2,3-dihydro-1H-benzo[d]imidazol-1-yl)-5-methoxypyrimidin-2-yl)amino)-4-methoxyphenyl)acrylamide]
8.00 to 9.00 | – | – | 71 to 78 | C=CC(=O)Nc1cc(Nc2nccc(-n3c(=O)n(C)c4ccccc43)n2)c(OCCOC)cc1N(C)CCN(C)C [Compound 120, N-{2-[(2-dimethylamino-ethyl)-methyl-amino]-4-(2-methoxy-ethoxy)-5-[4-(3-methyl-2-oxo-2,3-dihydro-benzoimidazol-1-yl)-pyrimidin-2-ylamino]-phenyl}-acrylamide]
> 9.00 | > 8.00 | 6.00 to 7.00 | 181 to 184 | C=CC(=O)Nc1cc(Nc2nccc(-n3c(=O)n(C4CC4)c4cc(F)ccc43)n2)c(OC)cc1N(C)CCN(C)C [Compound 98, N-(5-(4-(3-cyclopropyl-5-fluoro-2-oxo-2,3-dihydrobenzo[d]imidazol-1-yl)pyrimidin-2-ylamino)-2-((2-(dimethylamino)ethyl)(methyl)amino)-4-methoxyphenyl)acrylamide]
> 9.00 | > 8.00 | < 6.00 | 68 to 72 | C=CC(=O)Nc1cc(Nc2nccc(-n3c(=O)n(CC4CC4)c4ccccc43)n2)c(OC)cc1N(C)CCN(C)C [Compound 63, N-(5-((4-(3-(cyclopropylmethyl)-2-oxo-2,3-dihydro-1H-benzo[d]imidazol-1-yl)pyrimidin-2-yl)amino)-2-((2-(dimethylamino)ethyl)(methyl)amino)-4-methoxyphenyl)acrylamide]
> 9.00 | > 8.00 | < 6.00 | 179 to 181 | C=CC(=O)Nc1cc(Nc2nccc(-n3c(=O)n(C(C)C)c4ccccc43)n2)c(C)cc1N(C)CCN(C)C [Compound 127, N-(2-((2-(dimethylamino)ethyl)(methyl)amino)-5-((4-(3-isopropyl-2-oxo-2,3-dihydro-1H-benzo[d]imidazol-1-yl)pyrimidin-2-yl)amino)-4-methylphenyl)acrylamide]
> 9.00 | > 8.00 | 6.00 to 7.00 | 115 to 117 | C=CC(=O)Nc1cc(Nc2nccc(-n3c(=O)n(C(C)C)c4cc(O)ccc43)n2)c(OC)cc1N(C)CCN(C)C [Compound 139, N-(2-((2-(dimethylamino)ethyl)(methyl)amino)-5-((4-(5-hydroxy-3-isopropyl-2-oxo-2,3-dihydro-1H-benzo[d]imidazol-1-yl)pyrimidin-2-yl)amino)-4-methoxyphenyl)acrylamide]
> 9.00 | > 8.00 | 6.00 to 7.00 | – | C=CC(=O)Nc1cc(Nc2nccc(-n3c(=O)n(CC4CC4)c4cc(F)ccc43)n2)c(OC)cc1N(C)CCN(C)C [Compound 105, N-(5-(4-(3-(cyclopropylmethyl)-5-fluoro-2-oxo-2,3-dihydro-1H-benzo[d]imidazol-1-yl)pyrimidin-2-ylamino)-2-((2-(dimethylamino)ethyl)(methyl)amino)-4-methoxyphenyl)acrylamide]
8.00 to 9.00 | > 8.00 | < 6.00 | – | C=CC(=O)Nc1cc(Nc2nccc(-n3c(=O)n(C)c4ccccc43)n2)c(C(C)C)cc1N(C)CCN(C)C [Compound 132, N-(2-((2-(dimethylamino)ethyl)(methyl)amino)-4-isopropyl-5-((4-(3-methyl-2-oxo-2,3-dihydro-1H-benzo[d]imidazol-1-yl)pyrimidin-2-yl)amino)phenyl)acrylamide]

The remaining lines, values behind:

SMILES | pIC50 (EGFR T790M/L858R) | pIC50 (H1975) | pIC50 (H358) | melting point [°C]
C/C=C/C(=O)Nc1cc(Nc2nccc(-n3ccc4ccccc43)n2)c(OC)cc1N(C)CCN(C)C [Compound 66, (E)-N-(5-((4-(1H-indol-1-yl)pyrimidin-2-yl)amino)-2-((2-(dimethylamino)ethyl)(methyl)amino)-4-methoxyphenyl)but-2-enamide] | 7.30 to 8.00 | – | – | 150.2 to 152.8
COC/C=C/C(=O)Nc1cc(Nc2nccc(-n3ccc4ccccc43)n2)c(OC)cc1N(C)CCN(C)C [Compound 71] | 8.00 to 9.00 | – | – | –
C=CC(=O)Nc1cc(Nc2nccc(-n3ccc4ccccc43)n2)c(OC)cc1N(C)CCN1CCOCC1 [Compound 82, N-{5-(4-indol-1-yl-pyrimidin-2-ylamino)-4-methoxy-2-[methyl-(2-morpholin-4-yl-ethyl)-amino]-phenyl}-acryl amide] | 8.00 to 9.00 | 7.00 to 7.30 | < 6.00 | –
C=CC(=O)Nc1cc(Nc2ncc(NC)c(-n3ccc4ccccc43)n2)c(OC)cc1N(C)CCN(C)C [Compound 11, N-(5-(4-(1H-indol-1-yl)-5-(methylamino)pyrimidin-2-ylamino)-2-((2-(dimethylamino)ethyl)(methyl)amino)-4-methoxyphenyl)acrylamide] | 8.00 to 9.00 | – | – | 154 to 156
C=C(C)C(=O)Nc1cc(Nc2nccc(-n3ccc4ccccc43)n2)c(OC)cc1N(C)CCN(C)C [Compound 68, N-(5-((4-(1H-indol-1-yl)pyrimidin-2-yl)amino)-2-((2-(dimethylamino)ethyl)(methyl)amino)-4-methoxyphenyl)methacryl amide] | 7.30 to 8.00 | – | – | 145.7 to 147.1
C=CC(=O)Nc1cc(Nc2nccc(-n3ccc4ccccc43)n2)c(OC)cc1N1CCN(C)CC1 [Compound 84, N-(5-((4-(1H-indol-1-yl)pyrimidin-2-yl)amino)-4-methoxy-2-(4-methylpiperazin-1-yl)phenyl)acrylamide] | 7.30 to 8.00 | – | – | 204 to 205
C=CC(=O)Nc1cc(Nc2nccc(-n3ccc4ccccc43)n2)c(OC)cc1N(C)CCN1CCCCC1 [Compound 81, N-(5-(4-(1H-indol-1-yl)pyrimidin-2-ylamino)-4-methoxy-2-(methyl(2-(piperidin-1-yl)ethyl)amino)phenyl)acrylamide] | 8.00 to 9.00 | – | – | 131 to 136
CCC#CC(=O)Nc1cc(Nc2nccc(-n3ccc4ccccc43)n2)c(OC)cc1N(C)CCN(C)C [Compound 74, N-(5-((4-(1H-indol-1-yl)pyrimidin-2-yl)amino)-2-((2-(dimethylamino)ethyl)(methyl)amino)-4-methoxyphenyl)pent-2-ynamide] | 8.00 to 9.00 | – | – | 149.4 to 151.7
CC/C=C/C(=O)Nc1cc(Nc2nccc(-n3ccc4ccccc43)n2)c(OC)cc1N(C)CCN(C)C [Compound 67, (E)-N-(5-((4-(1H-indol-1-yl)pyrimidin-2-yl)amino)-2-((2-(dimethylamino)ethyl)(methyl)amino)-4-methoxyphenyl)pent-2-enamide] | 7.00 to 7.30 | – | – | 124.3 to 126.2
